# According to patent US20060263802A1 (priority 2003, published 2006):
# Key:
# Assay type in all cases: binding
# [1] = test system: human monoclonal antibody CRJA
# [2] = test system: human monoclonal antibody CR57
# [3] = test system: human monoclonal antibody CRJB
# [4] = test system: human monoclonal antibody CRJB; remark: listed apart in the source
# [5] = test system: human monoclonal antibody CR57; remark: listed apart in the source
# [6] = test system: human monoclonal antibody CRJA; remark: listed apart in the source
Sequence,Binding of CRJA (10 μg/ml) to looped/cyclic peptide (PEPSCAN-ELISA signal) [1],Binding of CR57 to linear peptide (PEPSCAN-ELISA signal) [2],Binding of CRJB (10 μg/ml) to looped/cyclic peptide (PEPSCAN-ELISA signal) [3],Binding of CRJB to linear peptide (PEPSCAN-ELISA signal) [4],Binding of CR57 (10 μg/ml) to looped/cyclic peptide (PEPSCAN-ELISA signal) [5],Binding of CRJA to linear peptide (PEPSCAN-ELISA signal) [6],Binding of CRJA to looped/cyclic peptide (PEPSCAN-ELISA signal) [1],Binding of human monoclonal antibody CR57 to linear peptide (PEPSCAN-ELISA signal) [2],Binding of CRJB to looped/cyclic peptide (PEPSCAN-ELISA signal) [3],Binding of human monoclonal antibody CRJB to linear peptide (PEPSCAN-ELISA signal) [4],Binding of CR57 to looped/cyclic peptide (PEPSCAN-ELISA signal) [5],Binding of human monoclonal antibody CRJA to linear peptide (PEPSCAN-ELISA signal) [6],Binding of CRJA (10 μg/ml) to looped/cyclic peptide (PEPSCAN-ELISA) [1],Binding of CRJB (10 μg/ml) to looped/cyclic peptide (PEPSCAN-ELISA) [3],Binding of CR57 (10 μg/ml) to looped/cyclic peptide (PEPSCAN-ELISA) [5]
TNFVGYVTTTFKRKH,96,71,99,125,79,96,–,–,–,–,–,–,–,–,–
LVIISPSVADLDPYD,117,85,102,107,98,104,–,–,–,–,–,–,–,–,–
STVFKDGDEAEDFVE,–,–,–,–,–,–,100,104,93,120,106,93,–,–,–
WSPIDIHHLSCPNNL,151,80,92,106,89,83,–,–,–,–,–,–,–,–,–
KDGDEAEDFVEVHLP,–,–,–,–,–,–,42,72,71,93,71,62,–,–,–
LDPYDRSLHSRVFPS,98,99,83,142,88,113,–,–,–,–,–,–,–,–,–
GPWSPIDIHHLSCPN,97,68,78,114,78,72,–,–,–,–,–,–,–,–,–
ENYTNFVGYVTTTFK,58,44,80,112,60,80,–,–,–,–,–,–,–,–,–
FRRLSHLRKLVPGFG,–,90,–,108,–,106,–,–,–,–,–,–,111,54,128
SSVIPLVHPLADPST,–,73,–,104,–,60,–,–,–,–,–,–,45,80,120
LGLRLMDGTWVAMQT,–,102,–,115,–,113,–,–,–,–,–,–,97,108,92
LAIKMNGFTCTGVVT,79,68,91,130,76,112,–,–,–,–,–,–,–,–,–
FPIYTILDKLGPWSP,57,42,63,105,65,88,–,–,–,–,–,–,–,–,–
CSGVAVSSTYCSTNH,94,110,90,165,94,106,–,–,–,–,–,–,–,–,–
GRCHPHVNGVFFNGI,–,117,–,113,–,100,–,–,–,–,–,–,104,102,110
VHPLADPSTVFKDGD,–,–,–,–,–,–,99,98,79,138,107,111,–,–,–
LKVGYILAIKMNGFT,76,78,74,112,58,68,–,–,–,–,–,–,–,–,–
SGFSYMELKVGYILA,69,79,83,132,74,105,–,–,–,–,–,–,–,–,–
NGVFFNGIILGPDGN,–,66,–,117,–,62,–,–,–,–,–,–,46,85,58
LIPEMQSSLLQQHME,–,89,–,111,–,107,–,–,–,–,–,–,91,85,98
KCSGVAVSSTYCSTN,78,88,83,130,101,111,–,–,–,–,–,–,–,–,–
RAAYNWKMAGDPRYE,86,90,101,130,141,92,–,–,–,–,–,–,–,–,–
LVPGFGKAYTIFNKT,–,54,–,112,–,83,–,–,–,–,–,–,58,58,87
DIFTNSRGKRASKGS,99,70,82,107,80,114,–,–,–,–,–,–,–,–,–
LVHPLADPSTVFKDG,–,164,–,174,–,106,–,–,–,–,–,–,108,116,133
EVHLPDVHNQVSGVD,–,–,–,–,–,–,103,91,107,150,125,104,–,–,–
CGVLGLRLMDGTWVA,–,99,–,117,–,96,–,–,–,–,–,–,101,91,110
SYMELKVGYILAIKM,96,65,92,123,106,143,–,–,–,–,–,–,–,–,–
GCTNLSGFSYMELKV,55,55,55,114,63,72,–,–,–,–,–,–,–,–,–
